For 15 molecules, GI50 and TGI results are on record in PubChem BioAssay (NCI).

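Briefly, cells in 96-well plates were exposed to five compound concentrations for 48 h, and endpoints were estimated by linear interpolation. At the GI50, growth is halved. At the TGI there is no net growth.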

Common to all, as to assay: NCI anticancer screen, dose series, 48 h
Test [1] has as its system MOLT-4 leukemia.
In test [2] the test system is RPMI-8226 leukemia.
In test [3] the test system is U251 CNS.
Test [4] has as its system K-562 leukemia.
For test [5], the system named is OVCAR-5 ovarian.
The subject of test [6] is 786-0 renal.
In test [7] the test system is OVCAR-4 ovarian.
The test system of test [8] is SF-295 CNS.
The test system of test [9] is SK-MEL-28 melanoma.
The test system of test [10] is HCC-2998 colon.

For the molecule `CCN(CC)C(=S)SSC1CCCCC1`, the GI50 is 11.4 µM in [1]; 9.99 µM in [2]; 14.2 µM in [3]; 11.3 µM in test [4]; 18.7 µM in [5]; 19.6 µM in [6]. The GI50 was 15 µM in test [7], 17.6 µM in test [8], 19.9 µM in [9] and 19.7 µM in test [10]. Further, the TGI was determined as 43.5 µM in test [1]; 31.4 µM in test [2]; 29.1 µM in [3]; 38.8 µM in [4]; 32.7 µM in [5]; 35 µM in test [6]. In addition, the TGI stood at 28.4 µM in test [7], 44.6 µM in test [8], 42.2 µM in test [9] and 41.1 µM in test [10].
As to `O=C(/C=C/c1ccc([N+](=O)[O-])o1)NNC(=O)c1cc2ccccc2cc1O`, the GI50 was 0.97 µM in [1]; 2.3 µM in test [2]; 2.17 µM in test [3]; 1.41 µM in test [4]; 13 µM in test [5]; 1.54 µM in test [6]. Further, the GI50 in test [7] was 1.26 µM; in test [8] it was 7.62 µM; in [9] it was 0.596 µM; in test [10] it was 1.32 µM. The TGI is more than 100 µM in [1]; more than 100 µM in test [2]; more than 26.1 µM in [3]; more than 100 µM in test [4]; more than 100 µM in test [5]; 3.47 µM in test [6]. Moreover, the TGI in test [7] is more than 100 µM; in test [8] it was more than 100 µM; in test [9], 2.21 µM; in test [10], 3.21 µM.
As to `Cc1ccc(N2C(=O)C(Cl)=C(Nc3cccc(O)c3)C2=O)cc1Cl`, the GI50 is 3.13 µM in test [1]; 3.95 µM in test [2]; 15.7 µM in [3]; 18.9 µM in test [4]; 16.5 µM in [5]; 19.3 µM in test [6]. The GI50 in [7] is 26.9 µM; in test [8], 17.8 µM; in test [9], 22.4 µM; in test [10], 14.5 µM. For the same molecule, the TGI in test [1] is 21.2 µM; in test [2] it was 28.6 µM; in test [3], 31 µM; in test [4], 52.8 µM; in test [5] it was 31.9 µM; in [6] it was 52 µM. For the same molecule, the TGI came out at 76.3 µM in test [7], 36.5 µM in test [8], 49.8 µM in [9] and 29.6 µM in test [10].
With `O=C(Nc1ccc(Br)cc1)c1cc(Br)cc(Br)c1O`, the GI50 is 3.83 µM in test [1]; 1.67 µM in [2]; 2.79 µM in test [3]; 3.1 µM in [4]; 2.7 µM in test [5]; 3.02 µM in [6]. For the same molecule, the GI50 in test [7] is 3.33 µM; in test [8] it was 1.83 µM; in test [9], 4.71 µM; in test [10] it was 3.35 µM. The TGI in test [1] is more than 100 µM; in [2], 6.26 µM; in [3], 23.1 µM; in [4] it was more than 100 µM; in test [5] it was 19.6 µM; in [6], 29.7 µM. Moreover, the TGI in [7] was more than 100 µM; in test [8], 5 µM; in test [9], 31.4 µM; in test [10], 10.1 µM.
Take `CCOC(=O)C(=O)Nc1c(C)cccc1CC`: the TGI in [1], in test [2], in [3], in test [4], in [5] and in test [6] was more than 100 µM throughout. In addition, the TGI in [7], in test [8], in test [9] and in test [10] was more than 100 µM throughout.
`Cc1ccc(C)c(NC(=O)/C(=N\NC(N)=S)C(C#N)c2ccccc2)c1` (stereo not given): the TGI in test [1], in test [2], in [3], in [4], in test [5] and in test [6] was more than 100 µM in each case. Besides, the TGI in [7], in test [8], in test [9] and in test [10] was more than 100 µM each time.
As for `O=C1NC(=O)C(c2ccccc2Cl)=C1Nc1cccc(O)c1`, the GI50 in test [1] was more than 25 µM; in test [2] it was 21.4 µM; in test [3], 9.32 µM; in test [4] it was 1.32 µM; in test [5], more than 20.5 µM; in [6], 13.8 µM. Further, the GI50 in test [7] is 7.02 µM; in [8], 8.32 µM; in [9], more than 25 µM; in test [10], more than 25 µM. The TGI in [1], in [2], in [3], in test [4], in [5] and in test [6] was more than 25 µM throughout. In addition, the TGI in test [7], in [8], in test [9] and in [10] was more than 25 µM in each case.
As to `O=C1/C(=C\c2cccs2)Oc2ccccc21`, the TGI in test [1], in [2], in [3], in test [4], in test [5] and in test [6] was more than 100 µM in each case. The TGI in [7], in [8], in [9] and in test [10] was more than 100 µM in each case.
Take `O=c1oc2c3ccc4ccccc4c3n(Cc3nc4ccccc4[nH]3)c2c2ccccc12`: the TGI is more than 100 µM in test [1]; more than 100 µM in [2]; more than 100 µM in [3]; more than 100 µM in test [4]; more than 100 µM in test [5]; more than 47.9 µM in test [6]. Moreover, the TGI in test [7], in [8], in test [9] and in test [10] was more than 100 µM in each case.
On to `c1cncc(C2c3[nH]c4ccccc4c3CCN2CCN2CCCCC2)c1` (stereo not given), for which the TGI in test [1], in test [2], in test [3], in test [4], in test [5] and in [6] was more than 100 µM in each case. For the same molecule, the TGI in test [7], in [8], in [9] and in test [10] was more than 100 µM each time.
Regarding `C=C1C(=O)O[C@H]2[C@H]1CC/C(COC(=O)c1ccc(C(=O)O)s1)=C\CC[C@@]1(C)O[C@@H]21`, the GI50 in [1] is 2.38 µM; in [2], 1.97 µM; in test [3], 2.61 µM; in test [4] it was 1.47 µM; in [5], 3.05 µM; in test [6], 1.54 µM. Further, the GI50 in test [7] was 3.18 µM; in test [8], 5.65 µM; in test [9], 2.1 µM; in [10], 3.47 µM. The TGI in test [1] was 7.2 µM; in test [2] it was 5.98 µM; in test [3], 8.37 µM; in test [4], more than 100 µM; in test [5], 10.1 µM; in test [6] it was 3.09 µM. The TGI was found to be 10.5 µM in [7], 18.7 µM in [8], 4.83 µM in test [9] and 11.5 µM in test [10].
Consider `CC1=C(N2CC2)C(=O)c2nc3n(c2C1=O)CCC3O` (stereo not given), for which the TGI in test [1] was 21.1 µM; in [2], 10.2 µM; in test [3], 0.962 µM; in [4], 5.06 µM; in test [5] it was 3.84 µM; in test [6], 0.967 µM. Besides, the TGI in test [7] came out at 0.269 µM; in [8], 0.512 µM; in test [9] it was 0.872 µM; in test [10], 0.328 µM.
For `COC1C(=O)CCC2(CO2)C1(O)C1(C)OC1CCC(C)C` (stereo not given), the TGI in test [1], in [2], in test [3], in [4], in test [5] and in test [6] was more than 100 µM in each case. The TGI in [7], in test [8], in test [9] and in test [10] was more than 100 µM each time.
Turning to `c1cc2c(cnc3cscc32)s1`, the TGI in test [1], in test [2], in test [3], in test [4], in [5] and in test [6] was more than 100 µM in each case. Also, the TGI in test [7], in [8], in test [9] and in test [10] was more than 100 µM throughout.
As for `Cc1cc2occ(C)c(=O)c2c2c1OC(C)(C)S2`, the TGI in test [1], in [2], in test [3], in [4], in [5] and in test [6] was more than 100 µM each time. The TGI in test [7], in test [8], in test [9] and in test [10] was more than 100 µM each time.
